Experimental data taken from patent EP0745595A1, “3-(3-Aryloxyphenyl)-1-(substituted methyl)-s-triazine-2,4,6-oxo or thiotrione herbicidal agents” (American Cyanamid Company, priority 1995, dated 1996).

How the values were obtained:
Assay type in all cases: in vivo
GALIUM APARINE = test: Preemergence herbicidal evaluation, GALAP (Galium); conditions: four to five weeks after treatment
Outline: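 Rated 0-9 by visual comparison with control (stand, vigor, malformation, size, chlorosis, overall appearance) four to five weeks after preemergence soil spray. Dose equivalent to about 0.125 to 0.50 kg per hectare, applied in aqueous acetone to freshly seeded cups kept in greenhouse.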

[1] = system: GLYCINE MAX(L) MERR. CV. WILLIAMS; test: Postemergence herbicidal evaluation, GLXMAW (Soybean, Williams); set-up: key to GLXMAW rating / Herbicidal effect rating, GLXMAW / GLXMAW: 0-9 visual rating scale vs untreated control
Outline: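 Soybean seedlings (Williams) were raised in jiffy flats for roughly two weeks, then sprayed postemergence through a nozzle at 40 psi with test compound dispersed in 50/50 acetone/water containing 0.5% TWEEN®20. Treated plants were kept on greenhouse benches under normal care and visually rated on a 0-9 scale four to five weeks later.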

SAGITTARIA PYGMAEA, L. = test: Preemergence weed control under flooded paddy conditions, SAGPY (Arrowhead (Pygmaea)); conditions: for SAGPY: pre-weed; for SAGPY herbicidal rating: preemergence weeds, rated three to four weeks after treatment
Outline: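 Seeds or propagules sown in top 0.5 cm of silt loam in undrained containers, flooded 1.5 to 3 cm throughout. Compounds in aqueous/acetone 50/50 v/v pipetted into flood water at about 0.5, 0.25, 0.125 and 0.063 kg/ha. Visual 0-9 rating versus control after three to four weeks in greenhouse.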

[2] = system: ABUTILON THEOPHRASTI, MEDIC.; test: Postemergence herbicidal evaluation, ABUTH (Velvetleaf); conditions: for ABUTH, herbicide rating (0-9): rated four to five weeks after treatment, averaged
Outline: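 Velvetleaf (Abutilon theophrasti) seedlings were raised in jiffy flats for about two weeks and then sprayed postemergence. The test compound was dispersed in a 50/50 acetone/water mixture containing 0.5% TWEEN®20 and applied through a nozzle operating at 40 psi. Plants were kept on greenhouse benches and rated 0-9 four to five weeks after treatment.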

[3] = system: ORYZA SATIVA, L. TEBONNET; test: Postemergence herbicidal evaluation, ORYSAT (Rice, Tebonnet); set-up: key: 0-9 visual rating scale vs untreated control
Outline: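 Rice (Tebonnet) seedlings raised in jiffy flats for roughly two weeks were sprayed postemergence at 40 psi with compound dispersed in 50/50 acetone/water containing 0.5% TWEEN®20. The plants were then kept on greenhouse benches under standard care and visually scored on a 0-9 scale against a control four to five weeks after treatment.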

COC(=O)Cn1c(=O)n(C)c(=O)n(-c2cc(Oc3ccc(C(F)(F)F)cc3Cl)ccc2[N+](=O)[O-])c1=O [Compound 3, Methyl 3-{5-[(2-chloro-α,α,α-trifluoro-p-tolyl)oxy]-2-nitrophenyl}tetrahydro-5-methyl-2,4,6-trioxo-s-triazine-1(2H)-acetate]
GALAP rating (GALIUM APARINE; Rate 0.125 kg/ha): 7.3
GALAP rating (GALIUM APARINE; Rate 0.250 kg/ha): 8.4
GALAP rating (GALIUM APARINE; Rate 0.500 kg/ha): 9.0
Herbicidal effect rating, GLXMAW ([1]; 0.031 kg/ha): 4.8
Herbicidal effect rating, GLXMAW ([1]; 0.063 kg/ha): 5.3
Herbicidal effect rating, GLXMAW ([1]; 0.125 kg/ha): 5.9
Herbicidal effect rating, GLXMAW ([1]; 0.250 kg/ha): 6.3
SAGPY (SAGITTARIA PYGMAEA, L.; Rate 0.031 kg/ha): 0.0
SAGPY (SAGITTARIA PYGMAEA, L.; Rate 0.063 kg/ha): 0.0
SAGPY (SAGITTARIA PYGMAEA, L.; Rate 0.125 kg/ha): 0.0
SAGPY (SAGITTARIA PYGMAEA, L.; Rate 0.250 kg/ha): 0.0
SAGPY herbicidal rating (SAGITTARIA PYGMAEA, L.; Rate 0.063 kg/ha): 0.0
SAGPY herbicidal rating (SAGITTARIA PYGMAEA, L.; Rate 0.125 kg/ha): 0.0
SAGPY herbicidal rating (SAGITTARIA PYGMAEA, L.; Rate 0.250 kg/ha): 0.0
SAGPY herbicidal rating (SAGITTARIA PYGMAEA, L.; Rate 0.500 kg/ha): 0.0
Herbicidal effect rating, ABUTH ([2]; 0.031 kg/ha): 7.3
Herbicidal effect rating, ABUTH ([2]; 0.063 kg/ha): 8.1
Herbicidal effect rating, ABUTH ([2]; 0.125 kg/ha): 8.8
Herbicidal effect rating, ABUTH ([2]; 0.250 kg/ha): 8.9
Herbicidal effect rating, ORYSAT ([3]; 0.031 kg/ha): 4.9
Herbicidal effect rating, ORYSAT ([3]; 0.063 kg/ha): 5.1
Herbicidal effect rating, ORYSAT ([3]; 0.125 kg/ha): 5.7
Herbicidal effect rating, ORYSAT ([3]; 0.250 kg/ha): 6.6

COC(=O)Cn1c(=O)n(C)c(=O)n(-c2cc(Oc3c(F)cc(C(F)(F)F)cc3Cl)ccc2F)c1=O [Compound 4, Methyl 3-{5-[(2-chloro-α,α,α,6-tetrafluoro-p-tolyl)oxy]-2-fluorophenyl}tetrahydro-5-methyl-2,4,6-trioxo-s-triazine-1(2H)-acetate]
GALAP rating (GALIUM APARINE; Rate 0.125 kg/ha): 7.3
GALAP rating (GALIUM APARINE; Rate 0.250 kg/ha): 9.0
GALAP rating (GALIUM APARINE; Rate 0.500 kg/ha): 9.0
Herbicidal effect rating, GLXMAW ([1]; 0.031 kg/ha): 5.1
Herbicidal effect rating, GLXMAW ([1]; 0.063 kg/ha): 5.7
Herbicidal effect rating, GLXMAW ([1]; 0.125 kg/ha): 6.4
Herbicidal effect rating, GLXMAW ([1]; 0.250 kg/ha): 7.3
Herbicidal effect rating, ABUTH ([2]; 0.031 kg/ha): 8.9
Herbicidal effect rating, ABUTH ([2]; 0.063 kg/ha): 8.9
Herbicidal effect rating, ABUTH ([2]; 0.125 kg/ha): 9.0
Herbicidal effect rating, ABUTH ([2]; 0.250 kg/ha): 9.0
ABUTH, herbicide rating (0-9) ([2]; Rate 0.125 kg/ha): 9.0
ABUTH, herbicide rating (0-9) ([2]; Rate 0.250 kg/ha): 9.0
ABUTH, herbicide rating (0-9) ([2]; Rate 0.500 kg/ha): 9.0
Herbicidal effect rating, ORYSAT ([3]; 0.031 kg/ha): 4.6
Herbicidal effect rating, ORYSAT ([3]; 0.063 kg/ha): 5.0
Herbicidal effect rating, ORYSAT ([3]; 0.125 kg/ha): 5.7
Herbicidal effect rating, ORYSAT ([3]; 0.250 kg/ha): 6.4
